From patent publication US20250009745A1, “CDK INHIBITOR” (SHANGHAI QILU PHARMACEUTICAL RESEARCH AND DEVELOPMENT …, priority 2021, published 2025)

Legend:
Assay in all cases: CDK enzymology experiment in vitro, capillary mobility shift assay (MSA)
Format in all cases: biochemical
CDK1 = biological target: T1, CDK1 (Homo sapiens, UniProt P06493); settings: read-out: CDK1 (nM) inhibitory IC50
T1 construct: purchased Carna Company
Outline: (§1)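 Recombinant kinases tested against peptide substrates in 1× kinase buffer, with compound added as a 100-fold DMSO stock. Top concentration 1, 10 or 30 μM, 3-fold dilutions over 10 points, in duplicate. Substrate conversion read by Caliper EZ Reader, normalised to no-enzyme and no-compound controls, and IC50 fitted with a variable-slope log(inhibitor)–response model.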

CDK2 = biological target: T2, CDK2 (Homo sapiens, UniProt P24941); settings: read-out: CDK2 (nM) inhibitory IC50
T2 construct: purchased Carna Company
Outline: as §1

CDK4 = biological target: T3, CDK4 (Homo sapiens, UniProt P11802); settings: read-out: CDK4 (nM) inhibitory IC50
T3 construct: purchased Carna Company
T3 sequence (P11802 whole entry): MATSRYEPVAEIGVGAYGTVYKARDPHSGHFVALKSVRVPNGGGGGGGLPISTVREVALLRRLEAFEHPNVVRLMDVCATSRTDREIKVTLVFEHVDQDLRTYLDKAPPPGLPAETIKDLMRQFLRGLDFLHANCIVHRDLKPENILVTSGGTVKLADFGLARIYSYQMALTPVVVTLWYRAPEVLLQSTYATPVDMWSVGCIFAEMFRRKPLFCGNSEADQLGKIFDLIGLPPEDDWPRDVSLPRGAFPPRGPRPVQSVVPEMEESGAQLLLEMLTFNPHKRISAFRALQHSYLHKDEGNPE
T3 sequence (P30281 whole entry partner): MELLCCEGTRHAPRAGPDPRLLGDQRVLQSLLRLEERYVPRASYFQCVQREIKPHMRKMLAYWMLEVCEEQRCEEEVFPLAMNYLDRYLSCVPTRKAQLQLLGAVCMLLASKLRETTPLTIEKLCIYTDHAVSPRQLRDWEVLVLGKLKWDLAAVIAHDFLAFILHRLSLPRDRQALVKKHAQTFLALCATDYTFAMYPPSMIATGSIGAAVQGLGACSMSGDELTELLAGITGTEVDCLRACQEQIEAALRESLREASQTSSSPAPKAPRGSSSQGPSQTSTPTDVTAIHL
Outline: as §1

CDK7 = biological target: T4, CDK7 (Homo sapiens, UniProt P50613); settings: read-out: CDK7 (nM) inhibitory IC50
T4 construct: purchased Carna Company
T4 sequence (P50613 whole entry): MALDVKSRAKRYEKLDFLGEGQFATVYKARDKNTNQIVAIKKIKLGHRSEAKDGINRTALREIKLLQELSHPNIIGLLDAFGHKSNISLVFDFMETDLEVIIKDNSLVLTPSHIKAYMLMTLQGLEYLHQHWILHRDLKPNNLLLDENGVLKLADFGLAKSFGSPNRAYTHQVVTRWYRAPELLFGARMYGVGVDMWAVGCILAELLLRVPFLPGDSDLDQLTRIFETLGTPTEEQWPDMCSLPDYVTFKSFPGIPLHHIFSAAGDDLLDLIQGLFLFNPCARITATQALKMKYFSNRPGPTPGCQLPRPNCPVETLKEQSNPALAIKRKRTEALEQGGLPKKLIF
T4 sequence (P51946 whole entry partner): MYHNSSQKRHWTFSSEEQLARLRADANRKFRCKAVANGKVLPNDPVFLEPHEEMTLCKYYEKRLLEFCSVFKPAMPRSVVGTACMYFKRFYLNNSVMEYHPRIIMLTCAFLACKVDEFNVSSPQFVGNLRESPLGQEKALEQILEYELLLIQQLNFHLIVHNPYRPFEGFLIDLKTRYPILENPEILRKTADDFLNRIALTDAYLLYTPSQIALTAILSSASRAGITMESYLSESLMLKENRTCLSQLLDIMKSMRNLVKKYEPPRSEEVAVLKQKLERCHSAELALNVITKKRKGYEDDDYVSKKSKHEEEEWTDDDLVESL
T4 sequence (P51948 whole entry partner): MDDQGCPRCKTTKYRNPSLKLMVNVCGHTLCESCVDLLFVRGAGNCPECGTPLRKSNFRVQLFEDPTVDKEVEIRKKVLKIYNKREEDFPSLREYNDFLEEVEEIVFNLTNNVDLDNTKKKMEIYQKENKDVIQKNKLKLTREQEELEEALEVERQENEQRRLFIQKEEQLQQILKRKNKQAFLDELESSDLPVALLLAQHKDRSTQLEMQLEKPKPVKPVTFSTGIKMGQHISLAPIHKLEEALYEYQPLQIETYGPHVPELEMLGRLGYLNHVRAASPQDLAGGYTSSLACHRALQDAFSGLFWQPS
Outline: as §1

CDK9 = biological target: T5, CDK9 (Homo sapiens, UniProt P50750); settings: read-out: CDK9 (nM) inhibitory IC50
T5 construct: purchased Carna Company
T5 sequence (P50750 whole entry): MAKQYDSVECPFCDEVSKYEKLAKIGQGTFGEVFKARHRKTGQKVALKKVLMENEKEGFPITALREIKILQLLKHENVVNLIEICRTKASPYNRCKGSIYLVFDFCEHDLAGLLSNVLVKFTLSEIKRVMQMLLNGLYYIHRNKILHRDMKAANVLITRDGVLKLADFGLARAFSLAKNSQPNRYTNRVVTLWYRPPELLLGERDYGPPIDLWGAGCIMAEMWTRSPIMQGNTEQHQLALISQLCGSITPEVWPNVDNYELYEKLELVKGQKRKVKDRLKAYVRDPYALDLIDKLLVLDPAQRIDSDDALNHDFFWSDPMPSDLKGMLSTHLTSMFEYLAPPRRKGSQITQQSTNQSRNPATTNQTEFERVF
T5 sequence (O60563 whole entry partner): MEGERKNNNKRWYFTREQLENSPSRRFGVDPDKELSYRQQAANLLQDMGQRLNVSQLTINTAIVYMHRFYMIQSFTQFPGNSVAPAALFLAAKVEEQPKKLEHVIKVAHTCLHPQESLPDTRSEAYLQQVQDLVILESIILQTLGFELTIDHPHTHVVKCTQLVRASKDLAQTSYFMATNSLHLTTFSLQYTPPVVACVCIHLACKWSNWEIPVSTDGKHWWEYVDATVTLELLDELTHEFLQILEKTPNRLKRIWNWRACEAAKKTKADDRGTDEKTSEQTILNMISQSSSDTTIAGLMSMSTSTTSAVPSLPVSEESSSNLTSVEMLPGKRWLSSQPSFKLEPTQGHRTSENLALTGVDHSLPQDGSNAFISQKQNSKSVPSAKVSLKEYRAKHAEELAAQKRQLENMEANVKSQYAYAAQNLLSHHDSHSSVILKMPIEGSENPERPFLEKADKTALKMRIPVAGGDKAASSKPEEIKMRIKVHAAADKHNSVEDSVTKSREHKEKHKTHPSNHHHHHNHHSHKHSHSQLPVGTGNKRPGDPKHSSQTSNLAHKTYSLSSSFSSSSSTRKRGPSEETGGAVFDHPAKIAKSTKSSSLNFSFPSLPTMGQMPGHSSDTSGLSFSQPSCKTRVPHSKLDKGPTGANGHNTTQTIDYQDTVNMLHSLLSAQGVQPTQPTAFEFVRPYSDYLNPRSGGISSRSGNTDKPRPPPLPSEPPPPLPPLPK
Outline: as §1

CDK6 = biological target: T6, CDK6 (Homo sapiens, UniProt Q00534); settings: read-out: CDK6 (nM) inhibitory IC50
T6 construct: purchased Carna Company
T6 sequence (Q00534 whole entry): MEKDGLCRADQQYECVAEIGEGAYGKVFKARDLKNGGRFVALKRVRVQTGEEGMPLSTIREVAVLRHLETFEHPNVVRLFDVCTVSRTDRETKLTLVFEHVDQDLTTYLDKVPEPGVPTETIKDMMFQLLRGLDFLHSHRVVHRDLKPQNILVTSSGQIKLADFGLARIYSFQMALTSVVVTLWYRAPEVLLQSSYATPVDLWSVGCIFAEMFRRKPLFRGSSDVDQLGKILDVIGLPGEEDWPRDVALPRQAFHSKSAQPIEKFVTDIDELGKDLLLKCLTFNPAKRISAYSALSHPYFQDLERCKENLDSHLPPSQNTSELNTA
T6 sequence (P30281 whole entry partner): as the sequence (P30281 whole entry partner) above

T1 sequence (P06493 whole entry): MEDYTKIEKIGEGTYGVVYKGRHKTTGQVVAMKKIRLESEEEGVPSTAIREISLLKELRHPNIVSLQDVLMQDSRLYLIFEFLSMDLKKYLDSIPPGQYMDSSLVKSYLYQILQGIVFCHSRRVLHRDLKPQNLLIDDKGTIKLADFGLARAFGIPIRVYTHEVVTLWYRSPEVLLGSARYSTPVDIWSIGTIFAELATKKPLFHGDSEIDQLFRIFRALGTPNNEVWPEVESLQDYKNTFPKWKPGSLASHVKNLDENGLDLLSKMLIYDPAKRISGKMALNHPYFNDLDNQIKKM
T1 sequence (P14635 whole entry partner): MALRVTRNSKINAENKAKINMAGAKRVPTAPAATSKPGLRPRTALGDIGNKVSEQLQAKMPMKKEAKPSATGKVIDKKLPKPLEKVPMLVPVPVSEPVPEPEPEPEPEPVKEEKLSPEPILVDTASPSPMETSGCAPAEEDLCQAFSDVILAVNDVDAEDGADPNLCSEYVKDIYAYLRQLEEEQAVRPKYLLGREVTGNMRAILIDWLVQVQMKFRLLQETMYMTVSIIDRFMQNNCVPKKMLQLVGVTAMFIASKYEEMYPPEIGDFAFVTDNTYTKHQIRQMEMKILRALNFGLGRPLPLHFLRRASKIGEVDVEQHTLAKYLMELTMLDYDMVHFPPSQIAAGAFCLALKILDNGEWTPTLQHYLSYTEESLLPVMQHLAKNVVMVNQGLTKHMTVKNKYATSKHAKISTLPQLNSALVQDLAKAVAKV

Compound	IC50 (CDK1) [nM]	IC50 (CDK2) [nM]	IC50 (CDK4) [nM]	IC50 (CDK7) [nM]	IC50 (CDK9) [nM]	IC50 (CDK6) [nM]
O=S(=O)(c1ccc([C@@H]2CCCNC2)cc1)N1CCC(Nc2ncc(C(F)(F)F)c(O[C@H]3CCOC3)n2)CC1 (single isomer, unassigned) [Example 114]	2.5 to 10	< 0.5	0.5 to 2.5	2.5 to 10	100 to 1000	0.5 to 2.5
O=S(=O)(c1ccc([C@H]2CCCNC2)cc1)N1CCC(Nc2ncc(C(F)(F)F)c(O[C@H]3CCOC3)n2)CC1 (single isomer, unassigned) [Example 115]	2.5 to 10	< 0.5	0.5 to 2.5	2.5 to 10	100 to 1000	0.5 to 2.5
Cn1cc(S(=O)(=O)N2CCC(Nc3ncc(C#N)c(NC4CCCC4)n3)CC2)cn1 [Compound 31]	50 to 100	0.5 to 2.5	2.5 to 10	100 to 1000	100 to 1000	0.5 to 2.5
Cn1cnc(S(=O)(=O)N2CCC(Nc3ncc(C#N)c(NC4CCCC4)n3)CC2)c1 [Compound 34]	10 to 50	0.5 to 2.5	2.5 to 10	100 to 1000	100 to 1000	10 to 50
Cn1cc(S(=O)(=O)N2CCC(Nc3ncc(C#N)c(N[C@H]4CCOC4)n3)CC2)cn1 [Compound 44]	100 to 1000	2.5 to 10	50 to 100	100 to 1000	> 1000	50 to 100
O=S(=O)(c1ccc(C2CCNCC2)c(F)c1)N1CCC(Nc2ncc(C(F)(F)F)c(O[C@H]3CCOC3)n2)CC1 [Compound 122]	10 to 50	< 0.5	0.5 to 2.5	10 to 50	100 to 1000	0.5 to 2.5
O=S(=O)(c1ccc(C2CNC2)cc1)N1CCC(Nc2ncc(C(F)(F)F)c(O[C@H]3CCOC3)n2)CC1 [Compound 131]	2.5 to 10	< 0.5	0.5 to 2.5	2.5 to 10	100 to 1000	0.5 to 2.5
CN(C)C1CCN(c2ccc(S(=O)(=O)N3CCC(Nc4ncc(C(F)(F)F)c(O[C@H]5CCOC5)n4)CC3)cc2)CC1 [Compound 132]	2.5 to 10	< 0.5	0.5 to 2.5	10 to 50	100 to 1000	0.5 to 2.5
CC1(O)CCN(c2ccc(S(=O)(=O)N3CCC(Nc4ncc(C(F)(F)F)c(O[C@H]5CCOC5)n4)CC3)cc2)CC1 [Compound 133]	2.5 to 10	< 0.5	0.5 to 2.5	10 to 50	50 to 100	0.5 to 2.5
O=S(=O)(c1ccc(N2CC[C@H](O)C2)cc1)N1CCC(Nc2ncc(C(F)(F)F)c(O[C@H]3CCOC3)n2)CC1 [Compound 141]	2.5 to 10	< 0.5	0.5 to 2.5	10 to 50	100 to 1000	0.5 to 2.5
Cn1cc(-c2ccc(S(=O)(=O)N3CCC(Nc4ncc(C(F)(F)F)c(O[C@H]5CCOC5)n4)CC3)cc2)cn1 [Compound 142]	0.5 to 2.5	< 0.5	0.5 to 2.5	2.5 to 10	10 to 50	0.5 to 2.5
O=S(=O)(c1ccc(N2CC3(CNC3)C2)cc1)N1CCC(Nc2ncc(C(F)(F)F)c(O[C@H]3CCOC3)n2)CC1 [Compound 144]	2.5 to 10	< 0.5	0.5 to 2.5	2.5 to 10	100 to 1000	0.5 to 2.5
O=S(=O)(c1ccc(C2=CCNC2)cc1)N1CCC(Nc2ncc(C(F)(F)F)c(O[C@H]3CCOC3)n2)CC1 [Compound 146]	2.5 to 10	< 0.5	0.5 to 2.5	2.5 to 10	100 to 1000	0.5 to 2.5
O=S(=O)(c1ccc(N2CCNC(C(F)(F)F)C2)cc1)N1CCC(Nc2ncc(C(F)(F)F)c(O[C@H]3CCOC3)n2)CC1 (stereo partly drawn) [Compound 147]	2.5 to 10	0.5 to 2.5	0.5 to 2.5	10 to 50	50 to 100	0.5 to 2.5
CN(C)CCN(c1nc(NC2CCN(S(=O)(=O)c3cnn(C)c3)CC2)ncc1C#N)C1CCCC1 [Compound 148]	100 to 1000	10 to 50	100 to 1000	100 to 1000	> 1000	100 to 1000
O=S(=O)(c1ccc(N2CCNCC2)nc1)N1CCC(Nc2ncc(C(F)(F)F)c(O[C@H]3CCOC3)n2)CC1 [Compound 153]	2.5 to 10	< 0.5	0.5 to 2.5	2.5 to 10	100 to 1000	0.5 to 2.5
Cc1cc(S(=O)(=O)N2CCC(Nc3ncc(C(F)(F)F)c(O[C@H]4CCOC4)n3)CC2)ccc1C1=CCNCC1 [Compound 154]	10 to 50	0.5 to 2.5	0.5 to 2.5	10 to 50	100 to 1000	0.5 to 2.5
CS(=O)(=O)N1CCC(Nc2ncc(C(F)(F)F)c(NC3CCCC3)n2)CC1 [Example 5, N^4-Cyclopentyl-N^2-(1-(methylsulfonyl)piperidin-4-yl)-5-(trifluoromethyl)pyrimidine-2,4-diamine]	100 to 1000	2.5 to 10	10 to 50	10 to 50	100 to 1000	10 to 50
Cn1cc(S(=O)(=O)N2CCC(Nc3ncc(C(F)(F)F)c(O[C@H]4CCOC4)n3)CC2)cn1 [Example 7, (S)—N-(1-((1-Methyl-1H-pyrazol-4-yl)sulfonyl)piperidin-4-yl)-4-((tetrahydrofuran-3-yl)oxy)-5-(trifluoromethyl)pyrimidin-2-amine]	10 to 50	0.5 to 2.5	10 to 50	10 to 50	100 to 1000	10 to 50
Cn1cc(-c2ccc(S(=O)(=O)N3CCC(Nc4ncc(C#N)c(N[C@H]5CCOC5)n4)CC3)cc2)cn1 [Example 8, (S)-2-((1-((4-(1-Methyl-1H-pyrazol-4-yl)phenyl)sulfonyl)piperidin-4-yl)amino)-4-((tetrahydrofuran-3-yl)amino)pyrimidine-5-carbonitrile]	10 to 50	0.5 to 2.5	2.5 to 10	50 to 100	100 to 1000	0.5 to 2.5
N#Cc1cnc(NC2CCN(S(=O)(=O)c3ccc(C4=CCNCC4)cc3)CC2)nc1NC1CCCC1 [Example 15, 4-(Cyclopentylamino)-2-((1-((4-(1,2,3,6-tetrahydropyridin-4-yl)phenyl)sulfonyl)piperidin-4-yl)amino)pyrimidine-5-carbonitrile]	10 to 50	0.5 to 2.5	0.5 to 2.5	10 to 50	100 to 1000	0.5 to 2.5
O=S(=O)(c1cnn(CCO)c1)N1CCC(Nc2ncc(C(F)(F)F)c(O[C@H]3CCOC3)n2)CC1 [Example 27]	2.5 to 10	< 0.5	2.5 to 10	10 to 50	100 to 1000	10 to 50
O=S(=O)(c1ccc(C2=CCNCC2)cc1)N1CCC(Nc2ncc(C(F)(F)F)c(O[C@H]3CCOC3)n2)CC1 [Example 100, (S)-4-((Tetrahydrofuran-3-yl)oxy)-N-(1-((4-(1,2,3,6-tetrahydropyridin-4-yl)phenyl)sulfonyl)piperidin-4-yl)-5-(trifluoromethyl)pyrimidin-2-amine]	2.5 to 10	< 0.5	0.5 to 2.5	2.5 to 10	100 to 1000	0.5 to 2.5
O=S(=O)(c1ccc(C2=CCCNC2)cc1)N1CCC(Nc2ncc(C(F)(F)F)c(O[C@H]3CCOC3)n2)CC1 [Example 112, (S)-4-((Tetrahydrofuran-3-yl)oxy)-N-(1-((4-(1,2,5,6-tetrahydropyridin-3-yl)phenyl)sulfonyl)piperidin-4-yl)-5-(trifluoromethyl)pyrimidin-2-amine]	2.5 to 10	< 0.5	0.5 to 2.5	2.5 to 10	100 to 1000	0.5 to 2.5
O=S(=O)(c1ccc(N2CCNCC2)cc1)N1CCC(Nc2ncc(C(F)(F)F)c(O[C@H]3CCOC3)n2)CC1 [Example 116]	2.5 to 10	< 0.5	0.5 to 2.5	10 to 50	100 to 1000	0.5 to 2.5
C[C@@H]1CN(c2ccc(S(=O)(=O)N3CCC(Nc4ncc(C(F)(F)F)c(O[C@H]5CCOC5)n4)CC3)cn2)C[C@H](C)N1 [Example 117]	2.5 to 10	< 0.5	< 0.5	2.5 to 10	100 to 1000	0.5 to 2.5
C[C@H]1CN(c2ccc(S(=O)(=O)N3CCC(Nc4ncc(C(F)(F)F)c(O[C@H]5CCOC5)n4)CC3)cc2)C[C@H](C)N1 [Example 168]	2.5 to 10	< 0.5	0.5 to 2.5	2.5 to 10	100 to 1000	< 0.5
